# Experimental data as given in patent publication US20100152129A1 (priority 2008, published 2010).
# Experiments:
# Panc-1 cells [1] = assay: Propidium iodide-based fluorescence cytotoxicity assay; format: cell-based; details: Homo sapiens, PANC-1; single agent, 0.1 nM
# Experimental: The combination of P276-00 and Gemcitabine was screened for its synergistic effect in Panc-1 cells using propidium iodide based fluorescence cytotoxicity assay.
# Test System: The Panc-1 cell line was procured from ATCC (American Tissue type Culture Collection), USA. Catalog number: CRL-1469 and the frozen vial was stored in liquid nitrogen container. Propidium iodide dye was procured from Sigma-Aldrich, USA. Catalog number: P-4170-100 mg and it was stored at 2-8° C.
# Method: Panc-1 cells were seeded at a density of 2000 cells/well, in a 200 μL in tissue culture grade 96 well plate and allowed to recover for 24 hrs in a humidified 5%±0.2 CO2 incubator at 37° C.±0.5° C. After 24 hrs, 1 μL of 200 X (200 times higher than required concentration is denoted as 200×) compound (dissolved in neat DMSO), as per Table 1 or 2 was added to the wells. The final DMSO concentration was 0.5% in wells. The plate was incubated for 24 hrs in humidified 5%±0.2 CO2 incubator at 37±0.5° C.
# After 24 hrs Minimum Essential Medium (MEM) from the Gemcitabine treated wells was removed and washed two times with fresh MEM and followed by addition of 200 μL of fresh MEM per well. 1 μL of 200× (200 times higher than required concentration is denoted as 200×) compound (dissolved in neat DMSO) was then added as per the Table 1 and 2 designs. The final DMSO concentration was 0.5% in wells which also served as the vehicle control for the study. After 72 hrs the plate was removed from CO2 incubator and spent MEM aspirated from the wells and supplemented with fresh MEM. This was followed by addition of 25 μL of propidium iodide (50 μg/ml in medium) per well. The same plate was frozen at −80° C. for 24 hrs and then thawed and allowed to come to room temperature. The fluorescence at a wavelength of 530 nm excitation and 620 nm emission was read.
# The percent cytotoxicity was calculated using the following formula
# Panc-1 cells [2] = assay: Microarray gene expression analysis; format: cell-based, human; details: Panc-1, microarray
# Excerpt: The goal of the microarray analysis was to evaluate putative gene expression signatures associated with the in vitro synergistic effect of the combination therapy of Gemcitabine with […]-00 in Panc-1 cells. The time points (3 hrs, 6 hrs, 12 hrs) were chosen to establish early molecular changes in the transcription profile for probable biomarkers and mechanism of action for the combination therapy. Approximately 20 million cells were lysed in Trizol Reagent (Invitrogen Corp, USA) and passed through a 21-gauge needle for 5-10 times before RNA extraction was performed. Total RNA extraction was performed using the RNeasy Mini kit (Qiagen, USA) according to the manufacturer's protocol. The final total RNA was eluted in nuclease-free water and the concentration/purity was determined by Nanodrop spectrophotometer (Thermo Fisher Scientific, Delaware, USA). cDNA generation and labeling: 20 μg of total RNA was reverse transcribed using amino allyl dUTP and oligo dT, the resulting cDNA was indirectly labeled with Cy3/Cy5 dyes (GE Healthcare, USA) using a fluorescent labeling kit (Promega Biosciences, USA). The concentration and dye incorporation of the labeled products were determined by Nanodrop spectrophotometer (Thermo Fisher Scientific, Delaware, USA). Equal amounts of labeled cDNA were denatured at 95° C. for 5 mins, cooled and microfuged at 13200 rpm for 5 mins before hybridization. Array fabrication and hybridization: 70-mer transcript oligonucleotides representing 36,480 human genes was purchased from Operon Biotechnologies (Germany) and spotted onto aminosilane coated glass slides (ArrayIt, USA) by contact printing using a Omnigrid (OG100) spotter (Genomic Solutions Inc, USA). Post printing, the slides were cross-linked with UV light at […], vacuumed, sealed and stored in the dark. The slides were pre-processed for background reduction using Pronto (Promega Life sciences, USA) pre-hyb kit as per the manufacturer's instructions. Hybridization was carried out in the GeneTAC Hybstation (Genomic Solutions Inc, USA) for 18 hrs. The hybridization protocol is as follows: 6 hrs at 42° C. (with agitation), 6 hrs at 35° C. (with agitation), and 6 hrs at 30° C. (with agitation). Post hybridization, the arrays were washed according to the manufacturer's protocol. The slides were dried by centrifugation at 1600 rpm for 5 mins. Scanning and image analysis: Post drying, the slides were scanned in a laser scanner (Genomic Solutions, USA) for Cy3 and Cy5 detection. The PMT settings were adjusted using the auto-exposure feature of the scanner. The TIFF files thus generated were exported to GeneTAC Integrator software (Genomic Solutions, USA) for image analysis. The resultant CSV file containing the annotated genome and the corresponding ratios were further used for data analysis.
# Panc-1 cells [3] = assay: Protein expression using high content cell imaging system, and efficacy score; format: cell-based; details: for Efficacy score: cumulative over proteins of Table 7
# Method: The data was generated using cell imaging system, where, cells after drug exposure were treated with protein specific antibody, followed by detection markers for the antibody. The images were generated and protein levels quantitated as an indication of drug effect.
# Methodology: Panc-1 cells were seeded at a density of 5000 cells per well in 96 well plates and allowed recovery for 24 hrs in 5% CO2 incubator. After recovery, cells were challenged with Gemcitabine (IC30) for 24 hrs. After 24 hrs Gemcitabine was removed and fresh medium was added. […] The combination efficacy was identified against single treatments. At the end of the experiment Panc-1 cells were fixed and permeabilized. All the primary antibodies were added at a concentration according to manufacture protocol. After one hour incubation the cells were washed three times and labeled with secondary antibodies tagged with Dye Light 548 and nucleus was stained with Hoechest3342. After antibody labeling, cells were stained with the Cellomics whole Cell Stain Green to identify the cell's cytoplasmic area. Then all the plates were scanned in Cellomics ArrayScan® VTI HCS Reader. The results were analyzed using software that is designed for measuring the read from the imaging system.
# Expression of proteins listed in Table 7 were determined in terms of fluorescence unit obtained by using target activation algorithm from High content imaging system from Cellomics. • Protein expression data expressed as fluorescent units from Table 7 were used to generate expression ratio by comparing drug treatments (individual or combination) against the normal control with no drug treatment. The ratio of expression which is considered as dys-regulation (1.5 fold above or below the range for up-regulation and down regulation respectively) is subtracted from the normal range (±1.5) and is used to measure the efficacy score.
# Expression ratio=protein expression during drug treatment/protein expression under normal control.
# Efficacy score =Cumulative score (expression ratio−±1.50) for all proteins.
# [4] = 6 hours post treatment, control 3
# [5] = 36 hours post treatment, control 98
structure (smiles),measurement,setting,value
"Nc1ccn([C@@H]2O[C@H](CO)[C@@H](O)C2(F)F)c(=O)n1 [Gemcitabine, 2′, 2′-difluorodeoxycytidine]",cytotoxicity at 0.0001 µM,Panc-1 cells [1],10%
same,CDK8 gene expression value (log value of intensities),Panc-1 cells [2],−0.03
same,DICER1 gene expression value (log value of intensities),Panc-1 cells [2],−0.16
same,DLG5 gene expression value (log value of intensities),Panc-1 cells [2],−0.19
same,DNAI1 gene expression value (log value of intensities),Panc-1 cells [2],0.03
same,FA38A gene expression value (log value of intensities),Panc-1 cells [2],−0.70
same,FGF5 gene expression value (log value of intensities),Panc-1 cells [2],0.28
same,HELLS gene expression value (log value of intensities),Panc-1 cells [2],0.40
same,HIST1H2BO gene expression value (log value of intensities),Panc-1 cells [2],−0.71
same,ID1 gene expression value (log value of intensities),Panc-1 cells [2],−0.60
same,MKKS gene expression value (log value of intensities),Panc-1 cells [2],−0.02
same,PPIL4 gene expression value (log value of intensities),Panc-1 cells [2],0.36
same,RRM2 gene expression value (log value of intensities),Panc-1 cells [2],0.69
same,SLC19A2 gene expression value (log value of intensities),Panc-1 cells [2],0.37
same,SNX7 gene expression value (log value of intensities),Panc-1 cells [2],0.27
same,TMPRSS3 gene expression value (log value of intensities),Panc-1 cells [2],0.85
same,PTN protein expression,"Panc-1 cells [3]; 6 hours post treatment, control 1",6 fluorescence units
same,GADD45-α protein expression,Panc-1 cells [3]; [4],4 fluorescence units
same,ID1 protein expression,Panc-1 cells [3]; [4],7 fluorescence units
same,P27 protein expression,"Panc-1 cells [3]; 6 hours post treatment, control 6",4 fluorescence units
same,CDC25B protein expression,"Panc-1 cells [3]; 6 hours post treatment, control 7",8 fluorescence units
same,CDKN2A protein expression,"Panc-1 cells [3]; 6 hours post treatment, control 8",60 fluorescence units
same,CCND1 protein expression,"Panc-1 cells [3]; 6 hours post treatment, control 74",83 fluorescence units
same,GAPDH protein expression,"Panc-1 cells [3]; 6 hours post treatment, control 80",84 fluorescence units
same,CASP3 protein expression,"Panc-1 cells [3]; 6 hours post treatment, control 147",115 fluorescence units
same,MMP-1 protein expression,"Panc-1 cells [3]; 6 hours post treatment, control 501",448 fluorescence units
same,COX15 protein expression,"Panc-1 cells [3]; 6 hours post treatment, control 627",1100 fluorescence units
same,COX2 protein expression,"Panc-1 cells [3]; 6 hours post treatment, control 635",462 fluorescence units
same,BAX protein expression,"Panc-1 cells [3]; 6 hours post treatment, control 819",892 fluorescence units
same,VEGF protein expression,"Panc-1 cells [3]; 6 hours post treatment, control 829",448 fluorescence units
same,BCL2 protein expression,"Panc-1 cells [3]; 6 hours post treatment, control 830",630 fluorescence units
same,pRB protein expression,"Panc-1 cells [3]; 6 hours post treatment, control 1240",1318 fluorescence units
same,Efficacy score,Panc-1 cells [3]; 6 hours,1.6
same,GADD45-α protein expression,"Panc-1 cells [3]; 16 hours post treatment, control 13",70 fluorescence units
same,CDC25B protein expression,"Panc-1 cells [3]; 16 hours post treatment, control 54",50 fluorescence units
same,CDKN2A protein expression,"Panc-1 cells [3]; 16 hours post treatment, control 64",57 fluorescence units
same,P27 protein expression,"Panc-1 cells [3]; 16 hours post treatment, control 67",72 fluorescence units
same,PTN protein expression,"Panc-1 cells [3]; 16 hours post treatment, control 76",68 fluorescence units
same,ID1 protein expression,"Panc-1 cells [3]; 16 hours post treatment, control 77",62 fluorescence units
same,CCND1 protein expression,"Panc-1 cells [3]; 16 hours post treatment, control 90",66 fluorescence units
same,GAPDH protein expression,"Panc-1 cells [3]; 16 hours post treatment, control 100",98 fluorescence units
same,CASP3 protein expression,"Panc-1 cells [3]; 16 hours post treatment, control 202",570 fluorescence units
same,VEGF protein expression,"Panc-1 cells [3]; 16 hours post treatment, control 579",604 fluorescence units
same,BCL2 protein expression,"Panc-1 cells [3]; 16 hours post treatment, control 644",693 fluorescence units
same,BAX protein expression,"Panc-1 cells [3]; 16 hours post treatment, control 711",926 fluorescence units
same,COX15 protein expression,"Panc-1 cells [3]; 16 hours post treatment, control 718",1134 fluorescence units
same,MMP-1 protein expression,"Panc-1 cells [3]; 16 hours post treatment, control 929",604 fluorescence units
same,COX2 protein expression,"Panc-1 cells [3]; 16 hours post treatment, control 1109",1151 fluorescence units
same,pRB protein expression,"Panc-1 cells [3]; 16 hours post treatment, control 2583",1931 fluorescence units
same,Efficacy score,Panc-1 cells [3]; 16 hours,7.6
same,GADD45-α protein expression,"Panc-1 cells [3]; 36 hours post treatment, control 19",51 fluorescence units
same,COX2 protein expression,"Panc-1 cells [3]; 36 hours post treatment, control 86",55 fluorescence units
same,P27 protein expression,"Panc-1 cells [3]; 36 hours post treatment, control 96",67 fluorescence units
same,CCND1 protein expression,Panc-1 cells [3]; [5],75 fluorescence units
same,CDC25B protein expression,Panc-1 cells [3]; [5],29 fluorescence units
same,GAPDH protein expression,Panc-1 cells [3]; [5],59 fluorescence units
same,ID1 protein expression,Panc-1 cells [3]; [5],26 fluorescence units
same,PTN protein expression,"Panc-1 cells [3]; 36 hours post treatment, control 100",94 fluorescence units
same,CASP3 protein expression,"Panc-1 cells [3]; 36 hours post treatment, control 265",633 fluorescence units
same,BAX protein expression,"Panc-1 cells [3]; 36 hours post treatment, control 715",1783 fluorescence units
same,COX15 protein expression,"Panc-1 cells [3]; 36 hours post treatment, control 722",1990 fluorescence units
same,VEGF protein expression,"Panc-1 cells [3]; 36 hours post treatment, control 1093",807 fluorescence units
same,MMP-1 protein expression,"Panc-1 cells [3]; 36 hours post treatment, control 1316",807 fluorescence units
same,BCL2 protein expression,"Panc-1 cells [3]; 36 hours post treatment, control 1410",698 fluorescence units
same,CDKN2A protein expression,"Panc-1 cells [3]; 36 hours post treatment, control 1441",1483 fluorescence units
same,pRB protein expression,"Panc-1 cells [3]; 36 hours post treatment, control 2840",2188 fluorescence units
same,Efficacy score,Panc-1 cells [3]; 36 hours,7.4
